Laboratory results taken from patent publication US20140161720A1, “TREATMENT OF ANGIOGENIC- OR VASCULAR-ASSOCIATED DISEASES” (THE GENERAL HOSPITAL CORPORATION, priority 2011, published 2014).
“Also recorded” adds a separate entry of the source.

What was measured:
[1] = system: Cdc42; assay: Cdc42 activation pull-down assay (PAK-PBD) in HUVECs; format: cell-based, human
Protocol: Rac1 and cdc42 activities were measured with a Rac1 (BK035) activation assay biochem kit (Cytoskeleton) according to the manufacturer protocol. In brief, human umbilical vein endothelial cells (HUVECs) were bovine brain extract-starved for 12 hours in 1% FBS-EGM (Lonza) and pretreated with various concentrations of DAL for 30 minutes at 37° C. The HUVECs were then stimulated with VEGF at […] for 15 minutes at 37° C. After stimulation, the cells were immediately incubated on ice, washed twice with PBS, and lysed with lysis buffer. The lysates were pre-cleared and added with 15 μl of PAK-PBD beads for pull-down of activated Rac1 or cdc42. After rocking at 4° C. for 1 hour, the beads were washed once and boiled at 100° C. for 2 minutes. The protein lysates were then resolved in a 8-16% gradient gel (Invitrogen) and transferred to a PVDF membrane. Primary antibodies (anti-Rac1, 1:1000, cytoskeleton or anti-cdc42, 1:1000, cell signaling) were added to bind to the protein overnight at 4° C., followed by incubation with HRP-conjugated secondary antibodies. Protein activity was measured by the standard ECL method (Amersham).
Without wishing to be bound by theory, DAL brings about its antivascular effects by destabilizing cell adhesion through the actin cytoskeleton. […] Therefore, potential targets of DAL in signaling pathways involved in actin remodeling were evaluated. […]

[2] = system: RhoA; assay: RhoA activity affinity purification assay (rhotekin RBD); format: cell-based, human; settings: HUVEC cells
Source text: Without wishing to be bound by theory, DAL brings about its antivascular effects by destabilizing cell adhesion through the actin cytoskeleton. It was next sought to identify which specific adhesion pathway it targets. Mechanical attachment at cell-cell adherens and tight junctions is regulated by dynamic changes in the actin cytoskeleton. Adherens junctions are composed of E-cadherin/β-catenin complexes and are connected to the actin cytoskeleton via sa-catenin (25-26), while tight junctions consist of transmembrane claudins and occludin and are associated with the actin cytoskeleton via ZO proteins (27-28). Therefore, potential targets of DAL in signaling pathways involved in actin remodeling were evaluated. […] Then, it was sought to determine whether Rho-GTPase family members are targets for DAL due to the disruption of cell adhesion and actin network remodeling along with inhibited motility. Rho-GTPases (e.g., Rac1) plays an important role in actin cytoskeletal organization and is involved in the coordination of cell adhesion (29). Furthermore, Rac1 is responsible for stabilizing endothelial cell junctions by opposing actin remodeling by Rho (30). In order to migrate, cancer cells employ dynamic remodeling of the actin cytoskeleton, form protrusive structures and generate forces necessary to produce cell translocation in the process regulated by Rho-GTPase Rac1. […]

[3] = system: Rac1; assay: Rac1 protein level by western blot in HUVECs; format: cell-based, human; settings: HUVEC, 10 μM for 24 hours
Protocol: HUVEC cells were treated with 10 μM of DAL for 24 hours and then lysed. A western blot with anti-human Rac1 antibody is shown on top panel while the bottom panel represents a loading control. […] To enhance ubiquitination events, HUVEC cells were pretreated with the proteasome inhibitors lactacystin (2.5 mM) or MG-132 (0.2 mM) for one hour and subsequently treated with DAL (10 μM) of DAL for 24 hours. Duolink in situ was used for the detection of ubiquitinated Rac1 in DAL treated and untreated HUVEC cells. For the two Duolink PLA probes, primary mouse antibodies raised against human Rac1 and primary rabbit anti-ubiquitin were used. Fluorescent spots represent ubiquitinated Rac1. The nuclei with additionally stained DAPI.
However, protein levels of Rac1 were reduced after DAL treatment (FIG. 6B). Next, it was assessed whether DAL can enhance Rac1 ubiquitination and therefore promote or speed up degradation (31-34). For the detection of Rac1 ubiquitination in HUVECs, Rac1-ubiquitin binding in situ was identified using a Duolink molecular proximity assay. In this assay, molecules thought to interact are targeted with fluorescent antibodies in situ, and individual interactions generate a signal detectable by microscopy only if secondary antibodies are located in close proximity to each other. […]

[4] = biological target: AKT2 (Homo sapiens, UniProt P31751); assay: Kinase inhibition screening; format: biochemical; settings: 10-dose, starting at 100 μM, 1 μM ATP
AKT2, sequence (P31751 whole entry, species assumed): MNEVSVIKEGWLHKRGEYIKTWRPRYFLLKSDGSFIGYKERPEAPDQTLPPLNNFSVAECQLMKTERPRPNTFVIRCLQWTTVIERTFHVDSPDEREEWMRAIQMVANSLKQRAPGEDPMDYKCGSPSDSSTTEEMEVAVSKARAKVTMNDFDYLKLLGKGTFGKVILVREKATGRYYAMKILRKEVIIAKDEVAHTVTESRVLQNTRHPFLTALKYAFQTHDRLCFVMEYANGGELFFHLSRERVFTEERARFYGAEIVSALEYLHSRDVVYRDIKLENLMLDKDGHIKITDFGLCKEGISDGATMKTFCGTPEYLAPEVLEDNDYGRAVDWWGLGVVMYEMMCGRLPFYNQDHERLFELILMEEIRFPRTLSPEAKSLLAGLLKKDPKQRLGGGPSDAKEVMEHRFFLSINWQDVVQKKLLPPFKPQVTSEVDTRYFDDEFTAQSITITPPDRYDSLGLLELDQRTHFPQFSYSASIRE
Protocol: (§1) To determine kinase activity of DAL, various kinases (AKT1, AKT2, AKT3, PKA, PKC alpha, PKC delta, PAK1, EPHB2, EPHB4, p38 alpha, PI3K-alpha, PI3K-beta, PI3K-gamma, PI3K-delta) were screened in a 10-dose IC50 mode with threefold serial dilutions starting at 100 μM. Staurosporine was used as a control starting at 10 μM and the reactions were carried out at 1 μM ATP.
(§2) Without wishing to be bound by theory, DAL brings about its antivascular effects by destabilizing cell adhesion through the actin cytoskeleton. It was next sought to identify which specific adhesion pathway it targets. Mechanical attachment at cell-cell adherens and tight junctions is regulated by dynamic changes in the actin cytoskeleton. Adherens junctions are composed of E-cadherin/β-catenin complexes and are connected to the actin cytoskeleton via sa-catenin (25-26), while tight junctions consist of transmembrane claudins and occludin and are associated with the actin cytoskeleton via ZO proteins (27-28). Therefore, potential targets of DAL in signaling pathways involved in actin remodeling were evaluated. […] Then, it was sought to determine whether Rho-GTPase family members are targets for DAL due to the disruption of cell adhesion and actin network remodeling along with inhibited motility. Rho-GTPases (e.g., Rac1) plays an important role in actin cytoskeletal organization and is involved in the coordination of cell adhesion (29). Furthermore, Rac1 is responsible for stabilizing endothelial cell junctions by opposing actin remodeling by Rho (30). In order to migrate, cancer cells employ dynamic remodeling of the actin cytoskeleton, form protrusive structures and generate forces necessary to produce cell translocation in the process regulated by Rho-GTPase Rac1. To assess whether DAL can modulate Rac1, RhoA, and Cdc42 activities, affinity purification assays were employed to monitor RhoA and Cdc42/Rac1 activity. The Rho-Binding Domain (RBD) of the Rho effector protein rhotekin and the p21 Binding Domain (PBD) of the Cdc42/Rac effector protein p21 activated kinase 1 (PAK) were applied to pull down active forms of each protein.

[5] = biological target: EPHB4 (Homo sapiens, UniProt P54760); assay: Kinase inhibition screening; format: biochemical; settings: 10-dose, starting at 100 μM, 1 μM ATP
EPHB4, sequence (P54760 16-987, species assumed): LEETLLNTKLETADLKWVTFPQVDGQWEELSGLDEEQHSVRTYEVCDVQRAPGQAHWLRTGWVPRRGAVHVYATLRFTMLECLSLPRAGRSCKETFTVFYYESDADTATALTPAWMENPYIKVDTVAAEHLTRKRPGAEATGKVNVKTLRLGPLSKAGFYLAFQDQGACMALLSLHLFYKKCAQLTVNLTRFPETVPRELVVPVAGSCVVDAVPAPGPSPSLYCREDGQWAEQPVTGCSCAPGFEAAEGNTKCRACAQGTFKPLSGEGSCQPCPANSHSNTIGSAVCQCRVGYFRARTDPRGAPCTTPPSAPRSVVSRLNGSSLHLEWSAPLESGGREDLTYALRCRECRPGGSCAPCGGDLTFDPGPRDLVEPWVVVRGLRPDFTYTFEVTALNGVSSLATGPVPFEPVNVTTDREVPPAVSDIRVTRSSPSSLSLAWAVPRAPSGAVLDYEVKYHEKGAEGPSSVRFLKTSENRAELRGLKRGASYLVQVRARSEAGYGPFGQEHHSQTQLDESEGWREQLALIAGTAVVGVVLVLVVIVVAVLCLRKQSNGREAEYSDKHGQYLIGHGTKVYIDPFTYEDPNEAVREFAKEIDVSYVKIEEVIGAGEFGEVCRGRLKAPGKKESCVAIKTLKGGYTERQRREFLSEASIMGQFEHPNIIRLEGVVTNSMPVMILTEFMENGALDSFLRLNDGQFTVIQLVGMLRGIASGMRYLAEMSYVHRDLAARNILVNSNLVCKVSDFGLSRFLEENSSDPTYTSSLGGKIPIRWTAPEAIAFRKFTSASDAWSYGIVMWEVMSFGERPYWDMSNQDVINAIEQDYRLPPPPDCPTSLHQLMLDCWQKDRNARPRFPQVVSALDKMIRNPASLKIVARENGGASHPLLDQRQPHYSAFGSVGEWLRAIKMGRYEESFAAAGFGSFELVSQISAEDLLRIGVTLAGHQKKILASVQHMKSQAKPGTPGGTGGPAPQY
Protocol: as §1, §2

[6] = biological target: PAK1 (Homo sapiens, UniProt Q13153); assay: Kinase inhibition screening; format: biochemical; settings: 10-dose, starting at 100 μM, 1 μM ATP
PAK1, sequence (Q13153 whole entry): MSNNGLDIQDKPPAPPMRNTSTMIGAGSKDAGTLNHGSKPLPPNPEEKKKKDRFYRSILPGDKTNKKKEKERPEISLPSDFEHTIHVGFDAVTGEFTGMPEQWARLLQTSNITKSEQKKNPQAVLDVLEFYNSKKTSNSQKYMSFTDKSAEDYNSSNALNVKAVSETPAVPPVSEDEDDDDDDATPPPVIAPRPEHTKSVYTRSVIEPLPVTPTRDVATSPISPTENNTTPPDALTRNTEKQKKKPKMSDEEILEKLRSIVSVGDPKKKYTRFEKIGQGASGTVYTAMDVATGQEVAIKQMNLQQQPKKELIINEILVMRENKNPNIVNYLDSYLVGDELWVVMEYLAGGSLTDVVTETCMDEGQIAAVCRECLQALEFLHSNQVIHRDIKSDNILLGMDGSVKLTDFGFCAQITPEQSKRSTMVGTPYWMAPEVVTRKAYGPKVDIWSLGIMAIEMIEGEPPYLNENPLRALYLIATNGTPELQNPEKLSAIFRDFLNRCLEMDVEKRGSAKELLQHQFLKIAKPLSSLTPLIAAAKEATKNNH
Protocol: as §1, §2

[7] = biological target: PI3K-beta (Homo sapiens, UniProt P42338); assay: Kinase inhibition screening; format: biochemical; settings: 10-dose, starting at 100 μM, 1 μM ATP
Protocol: as §1, §2

[8] = biological target: PI3K-delta (Homo sapiens, UniProt O00329); assay: Kinase inhibition screening; format: biochemical; settings: 10-dose, starting at 100 μM, 1 μM ATP
PI3K-delta, sequence (O00329 whole entry, species assumed): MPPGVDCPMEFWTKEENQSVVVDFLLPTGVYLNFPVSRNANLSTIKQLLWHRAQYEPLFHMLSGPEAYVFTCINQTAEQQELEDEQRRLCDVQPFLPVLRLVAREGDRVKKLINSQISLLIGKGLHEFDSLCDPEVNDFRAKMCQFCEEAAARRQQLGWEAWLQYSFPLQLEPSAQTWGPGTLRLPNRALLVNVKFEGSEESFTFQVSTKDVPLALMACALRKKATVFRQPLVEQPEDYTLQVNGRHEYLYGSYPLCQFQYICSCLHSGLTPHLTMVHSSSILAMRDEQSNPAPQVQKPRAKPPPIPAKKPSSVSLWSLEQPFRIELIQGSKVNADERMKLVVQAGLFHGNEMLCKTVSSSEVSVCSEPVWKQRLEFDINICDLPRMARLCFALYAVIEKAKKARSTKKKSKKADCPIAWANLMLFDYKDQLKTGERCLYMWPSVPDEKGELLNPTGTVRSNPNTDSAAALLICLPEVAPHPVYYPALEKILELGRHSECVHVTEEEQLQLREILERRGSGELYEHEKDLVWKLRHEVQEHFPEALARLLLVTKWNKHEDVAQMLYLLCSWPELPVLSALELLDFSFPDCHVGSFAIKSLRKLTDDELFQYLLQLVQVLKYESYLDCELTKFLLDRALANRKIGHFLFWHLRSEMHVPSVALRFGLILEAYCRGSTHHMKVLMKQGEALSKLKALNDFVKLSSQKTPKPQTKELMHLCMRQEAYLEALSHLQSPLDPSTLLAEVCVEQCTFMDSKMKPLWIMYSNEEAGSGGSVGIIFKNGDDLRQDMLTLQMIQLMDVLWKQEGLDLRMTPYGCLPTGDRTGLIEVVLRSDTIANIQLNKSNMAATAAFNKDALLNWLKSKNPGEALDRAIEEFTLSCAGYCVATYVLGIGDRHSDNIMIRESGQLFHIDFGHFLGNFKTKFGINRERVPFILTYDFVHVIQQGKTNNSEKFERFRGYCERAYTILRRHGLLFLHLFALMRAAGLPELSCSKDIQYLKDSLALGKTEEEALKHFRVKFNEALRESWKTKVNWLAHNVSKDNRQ
PI3K-delta, sequence (P27986 whole entry partner, species assumed): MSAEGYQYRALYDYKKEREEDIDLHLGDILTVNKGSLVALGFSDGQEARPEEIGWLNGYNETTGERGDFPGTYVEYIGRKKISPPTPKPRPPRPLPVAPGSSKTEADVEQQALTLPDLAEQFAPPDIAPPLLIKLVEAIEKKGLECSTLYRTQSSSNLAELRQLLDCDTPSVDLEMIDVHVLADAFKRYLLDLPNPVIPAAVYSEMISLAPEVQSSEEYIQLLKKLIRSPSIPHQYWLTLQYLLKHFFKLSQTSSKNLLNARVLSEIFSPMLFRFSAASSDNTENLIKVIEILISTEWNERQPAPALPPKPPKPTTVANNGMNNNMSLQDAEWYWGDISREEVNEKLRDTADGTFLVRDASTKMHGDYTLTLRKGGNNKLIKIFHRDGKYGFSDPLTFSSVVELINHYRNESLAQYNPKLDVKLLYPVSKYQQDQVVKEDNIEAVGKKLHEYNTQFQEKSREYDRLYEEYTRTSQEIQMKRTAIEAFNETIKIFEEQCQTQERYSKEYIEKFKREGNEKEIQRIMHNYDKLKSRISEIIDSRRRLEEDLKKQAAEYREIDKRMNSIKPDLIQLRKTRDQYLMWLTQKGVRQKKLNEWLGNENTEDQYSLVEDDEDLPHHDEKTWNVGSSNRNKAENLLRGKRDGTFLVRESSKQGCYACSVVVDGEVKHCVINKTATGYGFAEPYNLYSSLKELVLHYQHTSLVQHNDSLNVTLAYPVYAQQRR
Protocol: as §1, §2

[9] = biological target: PKA (Homo sapiens, UniProt P17612); assay: Kinase inhibition screening; format: biochemical; settings: 10-dose, starting at 100 μM, 1 μM ATP
Protocol: as §1, §2

[10] = biological target: p38 alpha (Homo sapiens, UniProt Q16539); assay: Kinase inhibition screening; format: biochemical; settings: 10-dose, starting at 100 μM, 1 μM ATP
p38 alpha, sequence (Q16539 whole entry): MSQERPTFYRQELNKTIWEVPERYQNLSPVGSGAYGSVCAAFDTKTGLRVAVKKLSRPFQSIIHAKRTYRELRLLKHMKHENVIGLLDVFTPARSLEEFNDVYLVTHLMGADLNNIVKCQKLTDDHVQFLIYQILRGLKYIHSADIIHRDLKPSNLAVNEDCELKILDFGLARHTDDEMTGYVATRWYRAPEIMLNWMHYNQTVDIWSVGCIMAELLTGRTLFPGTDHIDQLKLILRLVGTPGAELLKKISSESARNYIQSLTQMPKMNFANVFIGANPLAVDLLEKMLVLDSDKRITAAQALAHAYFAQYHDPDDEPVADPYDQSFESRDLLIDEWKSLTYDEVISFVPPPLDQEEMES
Protocol: as §1, §2

CC1(C)C=CC2=C(O1)C(=O)c1ccccc1C2=O [DAL, dehydro-alpha-lapachone]
Cdc42 activity [1]: no effect
RhoA activity [2]: no effect
protein levels of Rac1 [3]: reduced; also recorded: decreases
effect on kinase AKT2 [4]: no significant effects
effect on kinase EPHB4 [5]: no significant effects
effect on kinase PAK1 [6]: no significant effects
effect on kinase PI3K-beta [7]: no significant effects
effect on kinase PI3K-delta [8]: no significant effects
effect on kinase PKA [9]: no significant effects
effect on kinase p38 alpha [10]: no significant effects
